Test results: patent publication US5336485A, “Method for protecting animals against tacrine induced cytotoxic injury using sterol compounds” (priority 1993, dated 1994)

Tests used:
[1] = test system: mouse melanoma cells B-16; settings: cited from earlier work
variety of cell types = settings: cited from earlier work
canine hepatocytes [2] = experiment: Intracellular K+ of canine hepatocytes exposed to EMS; type: cell-based; settings: 25 μM, 50 mM EMS
Source text: Medzhradsky, Biochem. Med. 13:164 (1975), has noted that the cell's ability to maintain its intracellular concentration of potassium (K^+) is an excellent indicator of the metabolic integrity of the cell. A concentration gradient exists for K^+ with greater concentrations found intracellularly. To maintain this gradient, the cell is dependent on the action of the Na^+ -K^+ ATPase pump and an adequate supply of ATP. As cellular ATP levels decline, the ATPase pump is unable to maintain the gradient resulting in the loss of intracellular K^+ by equilibration with the extracellular space. Because the maintenance of cellular metabolic processes is essential to the continual repair and survival of cells, organ systems, and organisms, the effect of alpha-TS on the metabolic integrity of rat liver cells during a toxic insult was investigated by measuring intracellular K^+ levels. FIGS. 2a-2b show the response of rat and canine hepatocytes, respectively, exposed to 50 mM EMS. […] The response curves shown in FIGS. 2a and 2b indicate that alpha-TS under physiological conditions can maintain the metabolic integrity of animal hepatocytes during a toxic insult.
Only viable cells were monitored in the laboratory procedures.

male Sprague-Dawley rats = experiment: Energy status of rat tissue; type: in vivo; settings: 100 mg/kg ip, 24 h
Method: An in vivo experiment was performed to determine the effect of alpha-TS on the energy status of rat tissues. Male Sprague-Dawley rats were administered alpha-TS (100 mg/kg, single ip dose) or olive oil (vehicle only, 0.2 ml, single ip dose). Three rats were used per treatment. The rats fasted for 24 hours after ip dosage prior to sacrifice and analysis of tissues.

[3] = Tissue distribution of alpha-tocopherol and alpha-tocopherol ester in rats; type: in vivo, rat
epidermoid carcinomas = settings: local administration; cited from earlier work
[4] = test system: human neuroblastoma cells; settings: 10 μM; cited from earlier work
rat hepatocytes = experiment: ATP content of rat hepatocyte suspensions; type: cell-based
Source text: It is well known that the succinate molecule is utilized by the cell to produce ATP energy. In the tricarboxylic acid cycle, succinate is oxidized by succinate dehydrogenase to produce ATP. Oxidation occurs in the mitochondria and the mitochondria can utilize both succinate formed in the mitochondria or succinate transported to the mitochondria. Increasing ATP production may enhance cellular repair processes as well as normal metabolic processes. For example, the cell's ability to remove free intracellular Ca^2+ during a toxic insult is related to ATP production. Succinate administration stimulates gluconeogenesis to form glucose 6-phosphate which is used for producing energy anaerobically (ATP formation through glycolysis) and for producing reducing equivalents (NADPH formation through the hexose monophosphate shunt needed for lipid and nucleotide biosynthesis and other biosynthetic reductions and enzymatic reactions, e.g., glutathione reductase). An in vitro experiment was conducted to determine the relationship between the release of succinate from alpha-TS and the cellular ATP level. The experiment was performed by incubating a tocopherol analog in a rat hepatocyte suspension and measuring the ATP level at the beginning and end of the test.
Rat hepatocyte suspensions were subjected to 50 mM EMS and the percentage of cell death, the percentage of intracellular K^+ (a metabolic parameter as discussed above), the depletion of ATP and the effect on lipid peroxidation were monitored.

CDF1 mice = experiment: Doxorubicin lethality in CDF1 mice (normal tissue); type: in vivo, mouse; settings: 100 mg/kg ip 20 h prior, DOX 10, 15, 20, 25 mg/kg
Method: The experiments were conducted in accordance with NCI Protocol 1,100. FIGS. 8a-d show the experimental results obtained when male CDF1 mice (n=6) received either vehicle only or 100mg/kg body weight i.p. dose of either alpha-TS or cholesteryl succinate 20 hours prior to DOX administration. FIGS. 8a-d respectively show the results obtained when the mice received 10, 15, 20, and 25 mg DOX/kg body weight. […] FIGS. 9a-d show the experimental results obtained when male CDF1 mice ([…]) were injected (i.p.) with 10^6 murine L1210 leukemia cells followed immediately by an injection of alpha-TS tris salt (100 mg/kg, i.p.) or saline injection (vehicle), and twenty hours later (Day=0) each mouse in three of the groups was i.p. injected with 15, 20, or 25 mg DOX/kg body weight ([…]). Survival was monitored for twenty days.

canine hepatocytes [5] = experiment: EMS-induced cytotoxicity in canine hepatocytes; type: cell-based; settings: 25 μM, 50 mM EMS
human prostate cells = settings: 10 μM; cited from earlier work
[6] = (b) ip, peanut oil and ETOH, 1 dose 100 mg/kg, 24 h
[7] = (e) iv, liposomes, 1 dose 100 mg/kg, 24 h
[8] = (f) ip, olive oil, 7 daily doses

Compound: Cc1c(C)c2c(c(C)c1OC(=O)CCC(=O)O)CC[C@@](C)(CCC[C@H](C)CCC[C@H](C)CCCC(C)C)O2 [alpha-TS, d-alpha-tocopheryl succinate]
- tumor cell growth ([1]; 10 μM): inhibits tumor cell growth
- morphological differentiation [1]: induce morphological differentiation
- protection against carcinogenic effects of radiation and cancer causing chemicals (variety of cell types): protects a variety of cell types against the carcinogenic effects of radiation and cancer causing chemicals
- intracellular K+ during EMS insult (canine hepatocytes [2]): no loss of intracellular K+
- ATP, Blood (male Sprague-Dawley rats): 647 ± 29 nmol/g
- ATP, Brain (male Sprague-Dawley rats): 293 ± 86 nmol/g
- ATP, Heart (male Sprague-Dawley rats): 2782 ± 868 nmol/g
- ATP, Kidney (male Sprague-Dawley rats): 515 ± 44 nmol/g
- ATP, Liver (male Sprague-Dawley rats): 458 ± 57 nmol/g
- ATP, Lung (male Sprague-Dawley rats): 418 ± 18 nmol/g
- Glucose, Blood (male Sprague-Dawley rats): 4.8 ± 0.3 µmol/g
- Glucose, Heart (male Sprague-Dawley rats): 10.1 ± 1.7 µmol/g
- Glucose, Kidney (male Sprague-Dawley rats): 3.4 ± 1.1 µmol/g
- Glucose, Liver (male Sprague-Dawley rats): 21.7 ± 9.7 µmol/g
- Glucose, Lung (male Sprague-Dawley rats): 4.1 ± 0.5 µmol/g
- Glycogen, Blood (male Sprague-Dawley rats): 117 ± 26 µmol/g
- Glycogen, Brain (male Sprague-Dawley rats): 1400 ± 372 nmol/g
- Glycogen, Heart (male Sprague-Dawley rats): 4320 ± 946 nmol/g
- Glycogen, Kidney (male Sprague-Dawley rats): 211 ± 44 µmol/g
- Glycogen, Liver (male Sprague-Dawley rats): 778 ± 98 µmol/g
- Glycogen, Lung (male Sprague-Dawley rats): 634 ± 133 µmol/g
- Lactate, Blood (male Sprague-Dawley rats): 1.68 ± .06 µmol/g
- Lactate, Brain (male Sprague-Dawley rats): 7.82 ± .20 µmol/g
- Lactate, Heart (male Sprague-Dawley rats): 10.84 ± 2.67 µmol/g
- Lactate, Kidney (male Sprague-Dawley rats): 3.10 ± .21 µmol/g
- Lactate, Liver (male Sprague-Dawley rats): 3.36 ± .20 µmol/g
- Lactate, Lung (male Sprague-Dawley rats): 2.24 ± .29 µmol/g
- Liver Concentration Ester ([3]; 100 mg/kg ip, 24 h): 119 ± 16 nmol/g
- alpha-TS, Blood [3, 6]: 7 nmoles/gm of Tissue
- alpha-TS, Heart [3, 6]: 47 nmoles/gm of Tissue
- alpha-TS, Kidney [3, 6]: 31 nmoles/gm of Tissue
- alpha-TS, Liver [3, 6]: 119 nmoles/gm of Tissue
- alpha-TS, Lung [3, 6]: 90 nmoles/gm of Tissue
- alpha-TS, Plasma [3, 6]: 8 nmoles/gm of Tissue
- alpha-TS, Blood [3, 7]: 6 nmoles/gm of Tissue
- alpha-TS, Heart [3, 7]: 10 nmoles/gm of Tissue
- alpha-TS, Liver [3, 7]: 322 nmoles/gm of Tissue
- alpha-TS, Lung [3, 7]: 4843 nmoles/gm of Tissue
- alpha-TS, Plasma [3, 7]: 5 nmoles/gm of Tissue
- alpha-TS, Blood [3, 8]: 15 nmoles/gm of Tissue
- alpha-TS, Brain [3, 8]: 6 nmoles/gm of Tissue
- alpha-TS, Heart [3, 8]: 34 nmoles/gm of Tissue
- alpha-TS, Kidney [3, 8]: 44 nmoles/gm of Tissue
- alpha-TS, Liver [3, 8]: 161 nmoles/gm of Tissue
- alpha-TS, Lung [3, 8]: 128 nmoles/gm of Tissue
- accumulation of hepatic alpha-TS ([3]; oral): elimination of both the accumulation of hepatic alpha-TS and protection against CCl4 lethality
- tumor regression (epidermoid carcinomas): dramatic regression
- tumor cell growth [4]: inhibits tumor cell growth
- Rate of ATP Depletion (rat hepatocytes; 25 μM): 1.0 ± 0.1 nmoles/10^6 cell/hr
- Cellular ATP (rat hepatocytes; 25 μM, 0 Hr): 20.1 ± .5 nmoles/10^6 cells
- Cellular ATP (rat hepatocytes; 25 μM, 6 Hr): 14.2 ± 0.8 nmoles/10^6 cells
- Rate of ATP Depletion (rat hepatocytes; 250 μM): 0.6 ± 0.3 nmoles/10^6 cell/hr
- Cellular ATP (rat hepatocytes; 250 μM, 0 Hr): 15.2 ± 1.6 nmoles/10^6 cells
- Cellular ATP (rat hepatocytes; 250 μM, 6 Hr): 11.7 ± 2.0 nmoles/10^6 cells
- % Initial Intracellular [ATP] (rat hepatocytes; 50 mM EMS, 5 Hrs, 25 μM (Table 15)): 45 ± 2 % Initial
- survival after DOX, normal mice (FIGS. 8a-d) (CDF1 mice): survived significantly longer
- protection from lethal effects of EMS (canine hepatocytes [5]): protected both rat and canine hepatocytes from the lethal effects
- tumor cell growth (human prostate cells): inhibits tumor cell growth
